Experimental data taken from US6969703B2, “Inhibitors of the ICE/ced-3 family of cysteine proteases” (Idun Pharmaceuticals, Inc., priority 2000, dated 2005).
Each block holds one molecule with its values, some of them ahead of it. Primed or numbered codes have the meaning given here. The star is where a group is joined. aldehyde′ = C-terminal aldehyde (aspartyl aldehyde); Cbz = O=C(OCc1ccccc1)*; CH2F = FC*

Assays:
[1] = target: T1, Csp-1 (Homo sapiens, UniProt P29466); assay: Continuous assay for dissociation constant Ki of irreversible inhibitors; type: biochemical; settings: continuous assay for sixty minutes, reaction initiated by adding enzyme to substrate-inhibitor mixture
T1 sequence (P29466 120-297 limits assumed): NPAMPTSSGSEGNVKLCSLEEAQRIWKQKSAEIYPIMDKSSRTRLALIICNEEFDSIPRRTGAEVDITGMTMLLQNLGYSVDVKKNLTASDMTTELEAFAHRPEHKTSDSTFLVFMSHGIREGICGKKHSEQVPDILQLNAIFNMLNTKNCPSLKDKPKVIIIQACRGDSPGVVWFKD
Excerpt: (§1) For the irreversible inhibition of a ICE/ced-3 Family Protease enzyme with a competitive irreversible inhibitor; using the model represented by the following formulas: [drawing 16] The product formation at time t may be expressed as: [formula] where E, I, EI and E-I denote the active enzyme, inhibitor, non-covalent enzyme-inhibitor complex and covalent enzyme-inhibitor adduct, respectively. The Ki value is the overall dissociation constant of the reversible binding steps, and k3 is the irreversible rate constant. The [S] and Ks values are the substrate concentration and dissociation constant of the substrate bound to the enzyme, respectively. [E]^T is the total enzyme concentration.
(§2) The equations set forth in Example I were also used determine the Ki values of inhibitor (i.e., Compound No. 1) bound to a ICE/ced-3 family protease. Thus, a continuous assay was run for sixty minutes at various concentrations of the inhibitor and the substrate. The assay was formulated essentially the same as described above for generating the data in Table 2, except that the reaction was initiated by adding the enzyme to the substrate-inhibitor mixture. The Ki values were obtained by simulating the product AMC formation as a function of time according to Equation I. The results of this second assay are set forth below in Table 3, wherein the reference compound was Cbz-ValAlaAsp-CH2F.

[2] = target: T2, Csp-3 (Homo sapiens, UniProt P42574); assay: as above; type: biochemical; settings: continuous assay for sixty minutes, reaction initiated by adding enzyme to substrate-inhibitor mixture
T2 sequence (P42574 29-175 limits assumed): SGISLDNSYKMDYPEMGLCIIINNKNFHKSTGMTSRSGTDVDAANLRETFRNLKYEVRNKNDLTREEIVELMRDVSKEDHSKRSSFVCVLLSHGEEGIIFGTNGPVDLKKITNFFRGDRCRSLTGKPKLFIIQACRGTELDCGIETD
Excerpt: as §1, §2

[3] = target: T3, Csp-8 (Homo sapiens, UniProt Q14790); assay: as above; type: biochemical; settings: continuous assay for sixty minutes, reaction initiated by adding enzyme to substrate-inhibitor mixture
T3 sequence (Q14790 217-374 limits assumed): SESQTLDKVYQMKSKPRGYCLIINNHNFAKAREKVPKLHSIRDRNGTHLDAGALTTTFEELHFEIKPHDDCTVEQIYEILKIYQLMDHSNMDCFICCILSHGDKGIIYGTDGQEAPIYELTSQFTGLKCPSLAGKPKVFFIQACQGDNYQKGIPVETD
Excerpt: as §1, §2

[4] = target: T4, Csp-6 (Homo sapiens, UniProt P55212); assay: as above; type: biochemical; settings: continuous assay for sixty minutes, reaction initiated by adding enzyme to substrate-inhibitor mixture
T4 sequence (P55212 24-179 limits assumed): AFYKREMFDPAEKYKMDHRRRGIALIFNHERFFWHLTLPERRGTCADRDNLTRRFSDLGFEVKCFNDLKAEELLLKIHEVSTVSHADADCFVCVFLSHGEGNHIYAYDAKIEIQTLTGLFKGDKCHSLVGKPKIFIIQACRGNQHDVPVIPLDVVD
Excerpt: as §1, §2

[5] = target: T5, Csp-9 (Homo sapiens, UniProt P55211); assay: Fluorescence enzyme assay, IC50 determination; type: biochemical; settings: 30 minutes preincubation at room temperature, AMC substrate
T5 sequence (P55211 1-315 limits assumed): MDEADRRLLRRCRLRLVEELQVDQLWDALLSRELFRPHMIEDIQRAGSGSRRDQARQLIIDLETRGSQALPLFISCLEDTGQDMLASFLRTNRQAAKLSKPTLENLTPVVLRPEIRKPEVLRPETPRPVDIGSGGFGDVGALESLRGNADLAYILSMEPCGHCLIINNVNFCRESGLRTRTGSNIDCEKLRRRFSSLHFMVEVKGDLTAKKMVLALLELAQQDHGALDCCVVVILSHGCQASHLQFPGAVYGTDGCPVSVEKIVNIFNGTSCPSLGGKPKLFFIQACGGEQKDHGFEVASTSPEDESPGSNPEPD

[6] = target: T6, Csp-7 (Homo sapiens, UniProt P55210); assay: Fluorescence enzyme assay, IC50 determination; type: biochemical; settings: 30 minutes preincubation at room temperature, AMC substrate
T6 sequence (P55210 24-198 limits assumed): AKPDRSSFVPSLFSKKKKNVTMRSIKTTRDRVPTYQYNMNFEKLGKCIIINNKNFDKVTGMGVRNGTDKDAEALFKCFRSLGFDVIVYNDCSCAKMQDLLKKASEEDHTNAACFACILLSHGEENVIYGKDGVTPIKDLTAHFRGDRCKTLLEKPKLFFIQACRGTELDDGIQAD
Description: (§3) Fluorescence enzyme assays detecting the activity of the compounds of Formula I utilizing the recombinant ICE and CPP32 enzymes are performed essentially according to Thornberry et al. (Nature 356:768:774 (1992)) and Nicholson et al. (Nature 376:37-43 (1995)) respectively, (herein incorporated by reference) in 96 well microtiter plates. The substrate is Acetyl-Tyr-Val-Ala-Asp-amino-4-methylcoumarin (AMC) (SEQ ID NO: 1) for the ICE assay and Acetyl-Asp-Glu-Val-Asp-amino-4-methylcoumarin (SEQ ID NO: 2) for the CPP32, Mch2, Mch3 and Mch5 assays. Enzyme reactions are run in ICE buffer (25 mM HEPES, 1 mM EDTA, 0.1% CHAPS, 10% sucrose, pH 7.5) containing 2 mM DTT at room temperature in duplicate. The assays are performed by mixing the following components: • 50 μL ICE, Mch2, Mch5, CPP32 (18.8, 38, 8.1 and 0.153 nM concentrations, respectively) or Mch3 (1 unit) enzyme in ICE buffer containing either 8.0 (ICE, Mch2, Mch3, CPP32) or 20 (Mch5) mM DTT; • 50 μL compound of Formula I or ICE buffer (control); and • 100 μL of 20 μM substrate.
(§4) The enzyme and the compound of Formula I to be assayed are allowed to preincubate in the microtitre plate wells for 30 minutes at room temperature prior to the addition of substrate to initiate the reaction. Fluorescent AMC product formation is monitored for one hour at room temperature by measuring the fluorescence emission at 460 nm using an excitation wavelength of 360 nm. The fluorescence change in duplicate (control) wells are averaged and the mean values are plotted as a function of inhibitor concentration to determine the inhibitor concentration producing 50% inhibition (IC50).
(§5) The activity of a representative compound of this invention (i.e., Compound No. 1) was evaluated according to the procedures disclosed in Example 1. More specifically, the IC50 and Ki for Compound No. 1 were determined as set forth above. The IC50 results are provided in Table 2, as run against Cbz-ValAlaAsp-H as a reference control.

[7] = target: T1, Csp-1; assay: Fluorescence enzyme assay, IC50 determination; type: biochemical; settings: recombinant enzyme, 30 minutes preincubation at room temperature, AMC substrate
Description: as §3, §4, §5

[8] = target: T2, Csp-3; assay: Fluorescence enzyme assay, IC50 determination; type: biochemical; settings: recombinant enzyme, 30 minutes preincubation at room temperature, AMC substrate
Description: as §3, §4, §5

[9] = target: T3, Csp-8; assay: Fluorescence enzyme assay, IC50 determination; type: biochemical; settings: 30 minutes preincubation at room temperature, AMC substrate
Description: as §3, §4, §5

[10] = target: T4, Csp-6; assay: Fluorescence enzyme assay, IC50 determination; type: biochemical; settings: 30 minutes preincubation at room temperature, AMC substrate
Description: as §3, §4, §5

[11] = target: T7, Csp-8 (UniProt Q14790 217-374; Q14790 385-479, limits assumed); assay: continuous fluorogenic enzyme assay, 60 min, fit of AMC product formation to irreversible competitive inhibition model
T7 sequence (Q14790 217-374 limits assumed, form in doubt, chain 1 of 2): as the sequence (Q14790 217-374 limits assumed) above
T7 sequence (Q14790 385-479 limits assumed, form in doubt, chain 2 of 2): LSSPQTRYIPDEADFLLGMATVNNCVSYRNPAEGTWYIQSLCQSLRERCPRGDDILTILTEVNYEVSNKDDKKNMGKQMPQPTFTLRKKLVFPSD

[12] = target: T8, Csp-1 (UniProt P29466 120-297; P29466 317-404, limits assumed); assay: as above
T8 sequence (looked up) 1: T1 sequence (P29466 120-297 limits assumed)
T8 sequence (looked up) 2: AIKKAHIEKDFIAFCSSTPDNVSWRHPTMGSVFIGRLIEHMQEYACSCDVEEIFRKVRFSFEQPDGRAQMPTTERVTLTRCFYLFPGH

[13] = target: T9, Csp-3 (UniProt P42574 29-277, limits assumed); assay: as above
T9 sequence (looked up): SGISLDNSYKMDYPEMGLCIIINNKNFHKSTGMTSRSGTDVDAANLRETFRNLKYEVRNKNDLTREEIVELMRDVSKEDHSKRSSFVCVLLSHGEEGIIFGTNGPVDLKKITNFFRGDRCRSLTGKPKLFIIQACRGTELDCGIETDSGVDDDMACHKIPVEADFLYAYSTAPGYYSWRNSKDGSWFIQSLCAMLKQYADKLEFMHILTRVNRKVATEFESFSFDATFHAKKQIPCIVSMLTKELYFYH

[14] = target: T10, Csp-6 (UniProt P55212 24-179; P55212 194-293, limits assumed); assay: as above
T10 sequence (looked up) 1: T4 sequence (P55212 24-179 limits assumed)
T10 sequence (looked up) 2: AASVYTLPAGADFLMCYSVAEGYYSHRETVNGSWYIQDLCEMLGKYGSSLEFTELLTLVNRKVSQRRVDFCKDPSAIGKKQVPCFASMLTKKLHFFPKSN

[15] = target: T11, Csp-7 (UniProt P55210 24-303, limits assumed); assay: cell-based or functional assay
T11 sequence (looked up): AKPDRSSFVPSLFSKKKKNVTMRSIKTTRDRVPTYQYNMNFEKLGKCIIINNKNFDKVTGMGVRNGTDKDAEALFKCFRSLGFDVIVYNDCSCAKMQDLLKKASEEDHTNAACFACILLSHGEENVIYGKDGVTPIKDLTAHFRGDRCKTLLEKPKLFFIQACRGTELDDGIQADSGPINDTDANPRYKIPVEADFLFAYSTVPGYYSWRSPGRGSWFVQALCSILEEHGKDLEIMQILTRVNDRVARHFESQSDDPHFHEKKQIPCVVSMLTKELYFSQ

[16] = target: T7, Csp-8; assay: cell-based or functional assay
[17] = target: T12, Csp-9 (UniProt P55211 1-416, limits assumed); assay: cell-based or functional assay
T12 sequence (looked up): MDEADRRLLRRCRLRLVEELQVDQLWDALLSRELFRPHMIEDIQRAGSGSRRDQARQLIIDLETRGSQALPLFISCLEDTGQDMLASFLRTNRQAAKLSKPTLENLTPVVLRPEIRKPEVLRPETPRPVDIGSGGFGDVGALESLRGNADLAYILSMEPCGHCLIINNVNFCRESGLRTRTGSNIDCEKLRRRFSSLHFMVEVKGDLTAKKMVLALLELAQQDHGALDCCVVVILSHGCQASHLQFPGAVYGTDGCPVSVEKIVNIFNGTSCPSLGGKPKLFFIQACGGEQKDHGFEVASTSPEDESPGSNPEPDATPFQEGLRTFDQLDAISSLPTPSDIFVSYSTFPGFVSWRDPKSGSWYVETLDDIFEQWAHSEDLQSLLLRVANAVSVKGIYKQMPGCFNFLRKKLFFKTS

[18] = target: T8, Csp-1; assay: cell-based or functional assay
[19] = target: T9, Csp-3; assay: cell-based or functional assay
[20] = target: T10, Csp-6; assay: cell-based or functional assay

Ki [1]: 200 nM | Ki [2]: 80 nM | Ki [3]: 600 nM | Ki [4]: 400 nM | IC50 [5]: 5 nM | IC50 [6]: 4 nM | IC50 [7]: 4 nM | IC50 [8]: 2 nM | IC50 [9]: 6 nM | IC50 [10]: 2 nM
Molecule: CC(C)C(NC(=O)COc1cccc2ccccc12)C(=O)NC(CC(=O)NS(C)(=O)=O)C(=O)COc1c(F)c(F)cc(F)c1F (centres unmarked) [Compound 1]

Ki [11]: 18 nM | Ki [12]: 15 nM | Ki [13]: 820 nM | Ki [14]: 594 nM
Molecule: Cbz-Val-Ala-Asp-CH2F

IC50 (µM), inhibition of enzyme activity, fluorogenic substrate [15]: > 10 µM | IC50 (µM), inhibition of enzyme activity, fluorogenic substrate [16]: 2.96 µM | IC50 (µM), inhibition of enzyme activity, fluorogenic substrate [17]: 0.87 µM | IC50 (µM), inhibition of enzyme activity, fluorogenic substrate [18]: 0.064 µM | IC50 (µM), inhibition of enzyme activity, fluorogenic substrate [19]: 47 µM | IC50 (µM), inhibition of enzyme activity, fluorogenic substrate [20]: > 10 µM
Molecule: Cbz-Val-Ala-Asp-{aldehyde′} [Cbz-ValAlaAsp-H]
